Experimental data as given in BindingDB's records for PubMed 11082457 (Centre De Recherches De Croissy, 2000).

What was measured:
[1] = biological target: T1, Amine oxidase [flavin-containing] B (Rattus norvegicus, UniProt P19643)
T1 sequence (P19643 whole entry): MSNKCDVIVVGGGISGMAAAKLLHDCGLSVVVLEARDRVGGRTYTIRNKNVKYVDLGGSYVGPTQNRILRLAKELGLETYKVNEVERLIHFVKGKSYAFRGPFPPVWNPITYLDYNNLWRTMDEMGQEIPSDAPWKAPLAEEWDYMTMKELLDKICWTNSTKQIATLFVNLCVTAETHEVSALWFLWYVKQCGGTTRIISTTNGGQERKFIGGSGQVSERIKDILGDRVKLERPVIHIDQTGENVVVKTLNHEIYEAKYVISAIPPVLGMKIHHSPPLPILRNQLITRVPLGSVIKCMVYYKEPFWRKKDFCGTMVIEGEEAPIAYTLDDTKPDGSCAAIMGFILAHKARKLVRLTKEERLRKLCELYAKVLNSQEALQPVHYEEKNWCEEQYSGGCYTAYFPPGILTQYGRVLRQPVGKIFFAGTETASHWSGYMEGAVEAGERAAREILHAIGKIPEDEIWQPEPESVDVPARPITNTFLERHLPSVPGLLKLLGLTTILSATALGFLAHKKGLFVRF

[2] = biological target: T2, Alpha-1B adrenergic receptor (Rattus norvegicus, UniProt P15823)
T2 sequence (P15823 whole entry): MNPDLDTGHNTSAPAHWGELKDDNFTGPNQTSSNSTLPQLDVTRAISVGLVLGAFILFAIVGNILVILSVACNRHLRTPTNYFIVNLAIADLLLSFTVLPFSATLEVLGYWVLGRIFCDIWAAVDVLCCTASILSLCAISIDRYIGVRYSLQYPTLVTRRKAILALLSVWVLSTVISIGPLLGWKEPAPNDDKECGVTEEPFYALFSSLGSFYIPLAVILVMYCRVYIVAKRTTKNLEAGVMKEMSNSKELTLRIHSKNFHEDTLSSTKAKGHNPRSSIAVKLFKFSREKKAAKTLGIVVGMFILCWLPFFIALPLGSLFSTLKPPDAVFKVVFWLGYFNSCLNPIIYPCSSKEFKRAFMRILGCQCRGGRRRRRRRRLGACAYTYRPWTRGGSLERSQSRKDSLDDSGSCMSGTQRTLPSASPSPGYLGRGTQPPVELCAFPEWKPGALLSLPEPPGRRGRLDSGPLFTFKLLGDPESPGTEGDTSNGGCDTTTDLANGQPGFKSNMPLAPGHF

[3] = biological target: T3, Alpha-1D adrenergic receptor (Homo sapiens, UniProt P25100)
T3 sequence (P25100 whole entry): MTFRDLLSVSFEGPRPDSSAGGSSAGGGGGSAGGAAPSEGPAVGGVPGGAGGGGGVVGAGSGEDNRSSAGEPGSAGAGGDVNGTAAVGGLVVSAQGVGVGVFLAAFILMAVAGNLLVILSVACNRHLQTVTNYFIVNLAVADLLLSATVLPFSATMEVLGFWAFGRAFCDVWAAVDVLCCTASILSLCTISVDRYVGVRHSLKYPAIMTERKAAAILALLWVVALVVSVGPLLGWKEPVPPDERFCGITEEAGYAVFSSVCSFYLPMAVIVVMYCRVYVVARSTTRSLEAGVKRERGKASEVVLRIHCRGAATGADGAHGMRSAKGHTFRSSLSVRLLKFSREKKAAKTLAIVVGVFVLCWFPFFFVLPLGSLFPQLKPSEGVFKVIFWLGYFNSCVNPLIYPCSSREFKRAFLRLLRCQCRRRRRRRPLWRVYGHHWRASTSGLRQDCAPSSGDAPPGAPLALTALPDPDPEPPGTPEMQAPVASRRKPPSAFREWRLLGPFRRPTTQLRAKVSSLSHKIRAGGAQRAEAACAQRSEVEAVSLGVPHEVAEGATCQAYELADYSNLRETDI

[4] = biological target: T4, Alpha-2C adrenergic receptor (Rattus norvegicus, UniProt P22086)
T4 sequence (P22086 whole entry): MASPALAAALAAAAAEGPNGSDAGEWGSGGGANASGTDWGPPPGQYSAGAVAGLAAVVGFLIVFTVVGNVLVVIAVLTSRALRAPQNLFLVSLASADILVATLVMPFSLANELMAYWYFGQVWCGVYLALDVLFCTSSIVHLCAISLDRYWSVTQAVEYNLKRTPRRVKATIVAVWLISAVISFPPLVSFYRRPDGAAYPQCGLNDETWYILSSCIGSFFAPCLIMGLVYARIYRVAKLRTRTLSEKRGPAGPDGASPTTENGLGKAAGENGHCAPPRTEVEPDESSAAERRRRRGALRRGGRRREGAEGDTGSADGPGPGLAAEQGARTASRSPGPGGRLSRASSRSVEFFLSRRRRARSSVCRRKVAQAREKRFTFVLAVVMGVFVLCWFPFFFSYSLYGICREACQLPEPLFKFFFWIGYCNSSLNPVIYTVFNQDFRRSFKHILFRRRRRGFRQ

SMILES | Ki [1] | Ki [2] | Ki [3] | Ki [4]
Cc1cccc([C@@H](C)c2cnc[nH]2)c1C | 1000 nM | 316 nM | 79.4 nM | 1 nM
NC1=NC2(CCc3ccccc3C2)CO1 (stereo not drawn) [S18616] | 1000 nM | 100 nM | 25.1 nM | 0.159 nM
